We go through two molecules from publication PMC12471299, “Secondary Metabolites of the Marine Sponge-Derived Fungus Aspergillus subramanianii 1901NT-1.40.2 and Their Antimicrobial and Anticancer Activities” (Marine Drugs, 2025).

One test has as its system MCF-7 cells. The test can be described thus: Proliferation assay (CFDA SE, flow cytometry). In kind it is cell-based, human. The conditions noted are these: 5 µM, 48 h. On the procedure: MCF-7 cells at a concentration of 1.2 × 10^4 cells/well were seeded in a 12-well plate for 24 h. After adhesion, the cells were stained with (5,6)-carboxyfluorescein succinimidyl ester (CFDA SE) dye (LumiTrace CFDA SE kit; Lumiprobe, Moscow, Russia). Thereafter, the compound (5 µM) was added to the wells.
After 48 h of incubation, the cells were washed twice with PBS, scraped, and collected. The intensity of CFDA fluorescence was analyzed using a NovoCyte flow cytometer (Agilent, Austin, TX, USA), and the data were analyzed as previously described.
A general note: A flow cytometer gives signals particle by particle.

The test system of test [1] is Staphylococcus aureus ATCC 21027. As to the kind of experiment: Biofilm formation assay (MTT). In kind it is cell-based. The conditions noted are these: S. aureus, 18 h. Put shortly:
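Strains were precultured on Mueller Hinton agar at 37 °C for 24 h, then exposed to compound at up to 100 µM. Growth was read as OD620 after 18 h; 18 h biofilm formation was quantified with MTT at OD570. Values are MIC50, the lowest concentration cutting growth or biofilm by 50% versus 1% DMSO/PBS control.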

Take `COc1c(OC)c(-c2c[nH]c3ccc(O)cc23)c(OC)c(OC)c1-c1c[nH]c2ccccc12` [Compound 8, petromurin C]: in the test on MCF-7 cells, the “percentage of cells in division 1” value came out at 76.9%, the “percentage of cells in division 2” value is reported as 15.2% and the “percentage of cells in division 3” value was 5.5%.

Take `COC1=C(c2c[nH]c3ccccc23)C(=O)C(CC=C(C)C)=C(c2c[nH]c3ccccc23)C1=O` [Compound 6, kumbicin D]: the “Biofilm formation, MIC50” value in test [1] stood at 7.98 ± 0.57 µM.
